Measurements taken from patent US10682328B2, “Compositions and methods for treatment of retinal degenerative diseases” (MOR RESEARCH APPLICATIONS LTD., priority 2014, dated 2020).

Legend:
Format in all cases: cell-based, human
ARPE-19 cells = test: XTT cell viability / proliferation assay
Procedure: Cell viability assays ARPE-19 cells were seeded in 96-well plates (5000 cells/well) in full medium and were pretreated with the TAK1 inhibitor 5Z-7-oxozeaenol (1 μM) or left untreated for 1 hour. Their viability was then assayed by the XTT assay (cell proliferation kit cat #20-300-1000; Beit Haemek, Israel).

RPE cells [1] = test: SA-β-gal staining (senescence marker)
RPE cells [2] = test: Anisomycin toxicity to RPE cells (cellular morphology 72 hours post-treatment); conditions: low levels, 5 minute treatment
Procedure: To determine possible toxicity of anisomycin to RPE cells, RPE cells were treated with anisomycin at different concentration for 5 minute periods. Following treatment, the medium was replaced and fresh medium was added. 72 hours post-treatment, the cells were photographed. […] Their viability was then assayed by the XTT assay.

RPE cells [3] = test: Conditioned media (SASP) applied on fresh RPE cells, morphology
Procedure: FIG. 5 presents photographs showing that TAK1 inhibition contributes to the SASP of the RPE cells, causing hypertrophy and dysfunction. RPE cells were grown with the TAK1 inhibitor and/or H2O2 ([…]) or without treatment. After 2 weeks, conditioned media from the differently treated cells were centrifuge and the supernatants was employed on new freshly cells. Representative photographs of fresh RPE cells treated for 72 hours with the indicated conditioned media are shown. Scale bar=50 μm.
The most significant effect of senescence, is the acquisition of a senescence-associated secretory phenotype (SASP). SASP can convert senescent cells to proinflammatory cells that promote the secretion of chemokines and cytokines that can affect the microenvironment, including in the human retina (16, 17). To examine the role of TAK1 in this process, RPE cells were treated with TAK1 inhibitor or with H2O2, alone or in combination. After 2 weeks, the media was collected from the three separate treatments, centrifuged and the supernatants (conditioned media) were applied on fresh RPE cells for 72 hours.

RPE cells (ARPE-19) [4] = test: FACS cell-cycle phase analysis by DNA content (FL2A)
Procedure: (§1) Double-staining (annexin and propidium iodide (PI)) assay of RPE cells. RPE cells (ARPE-19, available from ATCC) were treated for one hour with the TAK1 inhibitor {5Z-7-oxozeaenol (1 μM)}, following 200 μM H2O2 for one hour or left untreated. The cells were then washed with fresh medium and after 24 hours were trypsinized, stained, and analyzed by FACS. The percentage of cells in each cell-cycle phase (G1/G0, S, and G2/M) was determined by its DNA content (FL2A).
To examine the effect of TAK1 inhibition on the RPE cell cycle, RPE cells were treated with TAK1 inhibitor, with or without H2O2. The RPE cells are quiescent and mostly located at the G0/G1 stage (FIGS. 1B and 1C), however, following TAK1 inhibition the percentage of cells at the G0/G1 stage increased to 89% of the total number. […] This phenomenon was reduced upon TAK1 inhibition prior to the oxidative stress (FIGS. 1B and C). The Cell cycle arrest at G0/G1 upon TAK1-inhibition was further supported by the reduction in proliferation of RPE cells observed in the presence of the TAK1 inhibitor (FIG. 1D).

RPE cells (ARPE-19) [5] = test: Annexin and propidium iodide double-staining FACS assay of RPE cells (apoptosis)
Procedure: as §1
The role of TAK1 in the inflammatory response is characterized (12, 13), but little is known about its participation in the response of RPE cells to stress. RPE cells were treated with the TAK1 inhibitor 5Z-7-oxozeaenol (1 μM) for 1 hour before further treatment with H2O2 (200 μM). […] In contrast, in cells treated with the TAK1 inhibitor prior to their treatment with H2O2 the number apoptotic cells was 24% (FIG. 1A). The number of cells in the late apoptosis section of each FACS chart (annexin and Pi, upper right panel) was similar with or without TAK1 inhibitor.

RPE cells [6] = test: RPE cell size quantification (hypertrophy); conditions: oxidative stress with TAK-1 inhibition; N=40 cells
Procedure: N=40 cells for each treatment. One of the hallmarks of RPE senescence is cellular hypertrophy. RPE cell size is approximately […]; but upon oxidative stress or genetic mutation RPE cells can undergo enlargement.

p53, phospho-p38 = test: Western blot of p53 and phospho-p38 in RPE cells under oxidative stress
Procedure: Western blot analysis was performed by standard protocols (11), p53, p38, phospho-p38, GADPH, and TAK1; antibodies were obtained from Enco, Israel.
The p53 protein is known to play a critical role in cell-cycle regulation, DNA repair, and programmed cell death (14, 15). In view of this knowledge, and given the above-described observation that TAK1 inhibition reduced apoptosis, the expression of p53 in RPE cells was examined.

[7] = medium from cells treated 2 weeks with the single agent

COc1ccc(C[C@H]2NC[C@H](O)[C@H]2OC(C)=O)cc1 [anisomycin, (2R,3S,4S)-4-hydroxy-2-(4-methoxybenzyl)-pyrrolidin-3-yl acetate]
rate of cell proliferation (ARPE-19 cells; oxidative stress and anisomycin): did not display reduction | number of SA-β-Gal positive cells (RPE cells [1]; H2O2 1 hour, 10 days growth, anisomycin 10 ng/ml 5 min, five more days, versus untreated cells exposed to oxidative stress): reduces the number of SA-β-Gal positive cells | toxicity to RPE cells (RPE cells [2]): not toxic

OO [H2O2]
phenotype of fresh RPE cells after 72 hours with conditioned medium (RPE cells [3]; [7]): hypertrophic phenotype similar to that of senescent cells | G2/M arrest (RPE cells (ARPE-19) [4]; H2O2 treatment alone): high levels of G2/M arrest | number of apoptotic cells as a percentage of the total number (RPE cells (ARPE-19) [5]; H2O2 alone (200 μM), untreated cells 1.25%): 31%

CC1=C(/C=C/C(C)=C/C=C/C(C)=C/c2cc(/C=C/C=C(C)/C=C/C3=C(C)CCCC3(C)C)cc[n+]2CCO)C(C)(C)CCC1 [A2E]
senescent phenotype (RPE cells [1]; A2E 5 μM added to cultured RPE cells): increases the senescent phenotype

COc1cc(O)c2c(c1)/C=C/C[C@H](O)[C@H](O)C(=O)/C=C\C[C@H](C)OC2=O [5Z-7-oxozeaenol]
phenotype of fresh RPE cells after 72 hours with conditioned medium (RPE cells [3]; [7]): hypertrophic phenotype similar to that of senescent cells | phenotype of fresh RPE cells after 72 hours with conditioned medium (RPE cells [3]; medium from cells treated with both TAK1 inhibitor and H2O2): aberrant morphology similar to that of atrophic RPE cells | cell size (RPE cells [6]): increases cell size | proliferation rate (optical density) (ARPE-19 cells; 5Z-7-oxozeaenol 1 μM pretreatment 1 hour, versus untreated cells peaking on day 4): slower proliferation rate | number of cells expressing SA-β-gal (RPE cells [1]; TAK1 inhibitor alone, relative to untreated cells): dramatically increased | SA-β-gal expression (RPE cells [1]; TAK1 inhibitor pretreatment then oxidative stress (200 μM H2O2 1 hour), days 13 and 16): strongly increased | G2/M arrest under oxidative stress (RPE cells (ARPE-19) [4]; TAK1 inhibition prior to H2O2 treatment): reduced | percentage of cells at the G0/G1 stage (RPE cells (ARPE-19) [4]; TAK1 inhibitor 1 μM, without H2O2): 89% | p53 expression levels over a longer period (p53, phospho-p38; TAK1 inhibition, days): reduced p53 expression levels slightly more than the untreated cells | p38 phosphorylation (p53, phospho-p38; TAK1 inhibitor 1 μM pretreatment, oxidative stress): inhibition of p38 phosphorylation | time of p53 expression peak (p53, phospho-p38; pretreated with TAK1 inhibitor 1 μM, oxidative stress, control peak after 60 min): 10 min | number of apoptotic cells as a percentage of the total number (RPE cells (ARPE-19) [5]; TAK1 inhibitor 1 μM 1 hour prior to H2O2 200 μM, FACS after 24 hours): 24%
